In PubChem BioAssay (NCI):
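Briefly, cells in 96-well plates were exposed to five compound concentrations for 48 h, and endpoints were estimated by linear interpolation. GI50 = concentration required for 50% inhibition of growth. The concentration for full growth arrest is given as TGI.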

Columns and labels:
Test in all cases: NCI anticancer screen, dose series, 48 h
A549 NSCLC = tested on: A549 NSCLC
MCF7 breast = tested on: MCF7 breast
RPMI-8226 leukemia = tested on: RPMI-8226 leukemia
OVCAR-8 ovarian = tested on: OVCAR-8 ovarian
U251 CNS = tested on: U251 CNS
CCRF-CEM leukemia = tested on: CCRF-CEM leukemia
MDA-MB-231 breast = tested on: MDA-MB-231 breast
DU-145 prostate = tested on: DU-145 prostate
786-0 renal = tested on: 786-0 renal
MALME-3M melanoma = tested on: MALME-3M melanoma

SMILES | GI50 (A549 NSCLC) [µM] | TGI (A549 NSCLC) [µM] | GI50 (MCF7 breast) [µM] | TGI (MCF7 breast) [µM] | GI50 (RPMI-8226 leukemia) [µM] | TGI (RPMI-8226 leukemia) [µM] | GI50 (OVCAR-8 ovarian) [µM] | TGI (OVCAR-8 ovarian) [µM] | GI50 (U251 CNS) [µM] | TGI (U251 CNS) [µM] | GI50 (CCRF-CEM leukemia) [µM] | TGI (CCRF-CEM leukemia) [µM] | GI50 (MDA-MB-231 breast) [µM] | TGI (MDA-MB-231 breast) [µM] | GI50 (DU-145 prostate) [µM] | TGI (DU-145 prostate) [µM] | GI50 (786-0 renal) [µM] | TGI (786-0 renal) [µM] | GI50 (MALME-3M melanoma) [µM] | TGI (MALME-3M melanoma) [µM]
C=CC(=O)N1CCN(c2nc(=O)n(-c3c(C)ccnc3C(C)C)c3nc(-c4c(O)cccc4F)c(F)cc23)[C@@H](C)C1 | > 46.5 | > 77.2 | 34.1 | > 100 | 18.1 | > 90.9 | 30.9 | > 100 | 48.7 | > 100 | 25.7 | 83.1 | 25.4 | 85.2 | 30.9 | 98.3 | 14.7 | 36.3 | 20.8 | 64
COc1cc(C)c(Cl)cc1C1=NN(c2ccc(S(N)(=O)=O)cc2)C(/C=C/c2ccccc2)C1 (stereo unspecified) | 3.31 | 19.3 | 2.55 | 9.13 | 2.76 | 7.93 | 3.33 | 19.1 | 3.12 | 11.3 | 4.34 | > 100 | 3.3 | 10.8 | 3.91 | 16.7 | 3.67 | 11.9 | 2.68 | 9.98
O=C(Nc1cccc(Cl)c1)c1ccc(NC2=C(Cl)C(=O)N(Cc3ccccc3)C2=O)cc1 | 33.3 | > 100 | 3.19 | 12.2 |  |  | 11.5 | 27.3 | 15.5 | > 48.1 | 0.436 | 1.44 | 8.08 | 31.9 | 8.37 | 19.2 | 8.61 | 19.7 | 24 | 78.5
Nc1ncnc2c1nc(Cl)n2C1OC2COP(=O)(O)OC2C1O (stereo unspecified) |  | > 300 |  | > 300 |  | > 300 |  | > 300 |  | > 300 |  | > 300 |  | > 300 |  | > 300 |  | > 300 |  | > 300
N[C@@H]1CCCC[C@H]1N.O=C([O-])C(=O)[O-].[Pt+4] | 0.615 | > 84.1 | 0.224 | 6.63 | 0.0528 | > 91.2 | 6 | > 100 | 1.83 | 27.1 | 0.35 | > 100 | > 100 | > 100 | 6.17 | > 100 | 0.752 | 42.9 | 3.22 | 26.6
COc1cc(-c2nn(-c3cccc(NC(=O)Nc4cc(C(F)(F)F)cc(C(F)(F)F)c4)c3)cc2-c2ccncc2)ccc1Cl | 0.438 | 2.8 | 0.563 | 8.59 | 0.203 | 7.74 | 0.524 | 3.98 | 0.36 | 1.13 | 0.498 | 2.79 | 0.675 | 1.43 | 0.987 | 5.59 | 0.892 | 1.82 | 0.677 | 2
COc1ccc(/C=C/C(=O)c2ccc(SC)cc2)cc1OC | 15.8 | 42.7 | > 100 | > 100 | 4.02 | 21.2 | 16.5 | 44 | 3.53 | 13.8 | 5.26 | 82.1 | 9.05 | 33.7 | 13.4 | 30.9 | 12.5 | 26.6 |  | 
O=C(c1ccco1)c1nc2cc(Cl)ccc2[n+]([O-])c1C(F)(F)F | 63.3 | > 100 | 41 | > 100 | 10.8 | 44 | 57.1 | > 100 | 70.9 | > 100 | 0.0182 | 0.443 | 34.2 | > 100 | 76.5 | > 100 | > 100 | > 100 | 47.9 | > 100
O=C(Nc1cc(Cl)cc(Cl)c1)c1ccc(NC2=C(Cl)C(=O)N(Cc3ccc(Cl)cc3Cl)C2=O)cc1 | > 100 | > 100 | 3.18 | 12.9 | 2.53 | 10.9 | 21.6 | 87.2 | 16.8 | 51.6 | 0.22 | 0.819 | 19.6 | 41.8 | 20.1 | 50.7 | 3.41 | 35.1 |  | 
O=C1c2cc3c(cc2-c2c1c1ccc(Cl)cc1c(=O)n2CCCNCCO)OCO3 | 0.115 | 2.38 | 0.0176 | 0.179 | 0.145 | 3.27 | 0.476 | 2.59 | 0.0403 | 1.4 | 0.0347 | 1 | 1.73 | 3.49 | 0.059 | 1.68 | 0.119 | 0.278 |  | 
C/C(=N\Nc1cc(C)c2cc(C)ccc2n1)c1ccccn1 | < 0.049 | 1.14 | 0.0866 | 1.16 | 0.079 | 1.96 |  |  | < 0.0393 | 1.16 | < 0.0276 | 0.356 | < 0.0303 | 1.54 | 0.0737 | 4.8 | 0.105 | 1.27 | 0.123 | 1.27
O=C1C(Cl)=C(Nc2cccc(Cl)c2)C(=O)N1Cc1ccccc1Cl | 10.2 | 26.5 | 5.18 | 21.2 | 1.82 | 26 | 1.82 | 17.1 | 2.95 | 11.3 | 0.457 | > 100 | 2.4 | 15.1 | 18.2 | 38.1 | 1.21 | 16.3 |  | 
O=c1ccn(C2OC(CO/N=C/c3ccc(O)c(O)c3O)C(O)C2O)c(=O)[nH]1 (stereo unspecified) | 54.3 | > 100 | 18.8 | 37.6 | 49.5 | > 100 | 22.3 | 56 | 16.8 | 30.4 |  |  | 30 | > 100 | 17.1 | 33.2 | > 100 | > 100 | 10.1 | > 100
